From PMC10507085, “Pharmacological inhibition of TBK1/IKKε blunts immunopathology in a murine model of SARS-CoV-2 infection” (Nature Communications, 2023)

Tests used:
[1] = target: T1, PIM2 (Homo sapiens, UniProt Q9P1W9); test: KINOMEscan competition binding ([…] kinases, […] IDX)
[2] = target: T2, DRAK1 (Homo sapiens, UniProt Q9UEE5); test: biochemical; design: KINOMEscan competition binding, DNA-tagged kinase against immobilised ligand, qPCR read-out
T2 construct: gene STK17A
T2 sequence (Q9UEE5 1-414): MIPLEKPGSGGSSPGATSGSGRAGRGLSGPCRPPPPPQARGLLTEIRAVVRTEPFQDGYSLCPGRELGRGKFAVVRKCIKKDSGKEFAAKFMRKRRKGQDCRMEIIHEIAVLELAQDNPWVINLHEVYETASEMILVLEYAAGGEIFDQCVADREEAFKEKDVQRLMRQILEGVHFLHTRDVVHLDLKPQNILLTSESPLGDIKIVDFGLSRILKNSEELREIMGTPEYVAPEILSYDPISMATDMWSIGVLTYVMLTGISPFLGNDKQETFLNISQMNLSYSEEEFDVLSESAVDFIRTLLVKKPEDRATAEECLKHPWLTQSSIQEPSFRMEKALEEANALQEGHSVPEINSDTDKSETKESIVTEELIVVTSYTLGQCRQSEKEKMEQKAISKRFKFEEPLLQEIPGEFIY

[3] = target: T1, PIM2; test: biochemical; design: KINOMEscan competition binding, DNA-tagged kinase against immobilised ligand, qPCR read-out
[4] = target: T2, DRAK1; test: KINOMEscan competition binding ([…] kinases, […] IDX)
[5] = target: GRK7 (Homo sapiens, UniProt Q8WTQ7); test: biochemical; design: KINOMEscan competition binding, DNA-tagged kinase against immobilised ligand, qPCR read-out; settings: read-out: Percent Control
Experimental: (§1) The KINOMEscan^TM kinase assays[65] were performed by Eurofins DiscoverX Corporation. For each kinase, the assay relies on the ability of the tested compound to compete against an immobilised ligand for binding to the DNA-tagged kinase. RT-qPCR is then used to measure the quantity of kinase molecules bound to the immobilised ligand, which is decreased if the tested compound competed with the kinase-ligand interaction. An 11-point 3-fold serial dilution of IDX compound was prepared in 100% DMSO at 100× final test concentration and subsequently diluted to 1× in the assay. […]

[6] = target: RAF1 (Homo sapiens, UniProt P04049); test: biochemical; design: KINOMEscan competition binding, DNA-tagged kinase against immobilised ligand, qPCR read-out; settings: read-out: Percent Control
Experimental: as §1

[7] = target: MST1R (Homo sapiens, UniProt Q04912); test: biochemical; design: KINOMEscan competition binding, DNA-tagged kinase against immobilised ligand, qPCR read-out; settings: read-out: Percent Control
Chain of MST1R (Q04912 whole entry): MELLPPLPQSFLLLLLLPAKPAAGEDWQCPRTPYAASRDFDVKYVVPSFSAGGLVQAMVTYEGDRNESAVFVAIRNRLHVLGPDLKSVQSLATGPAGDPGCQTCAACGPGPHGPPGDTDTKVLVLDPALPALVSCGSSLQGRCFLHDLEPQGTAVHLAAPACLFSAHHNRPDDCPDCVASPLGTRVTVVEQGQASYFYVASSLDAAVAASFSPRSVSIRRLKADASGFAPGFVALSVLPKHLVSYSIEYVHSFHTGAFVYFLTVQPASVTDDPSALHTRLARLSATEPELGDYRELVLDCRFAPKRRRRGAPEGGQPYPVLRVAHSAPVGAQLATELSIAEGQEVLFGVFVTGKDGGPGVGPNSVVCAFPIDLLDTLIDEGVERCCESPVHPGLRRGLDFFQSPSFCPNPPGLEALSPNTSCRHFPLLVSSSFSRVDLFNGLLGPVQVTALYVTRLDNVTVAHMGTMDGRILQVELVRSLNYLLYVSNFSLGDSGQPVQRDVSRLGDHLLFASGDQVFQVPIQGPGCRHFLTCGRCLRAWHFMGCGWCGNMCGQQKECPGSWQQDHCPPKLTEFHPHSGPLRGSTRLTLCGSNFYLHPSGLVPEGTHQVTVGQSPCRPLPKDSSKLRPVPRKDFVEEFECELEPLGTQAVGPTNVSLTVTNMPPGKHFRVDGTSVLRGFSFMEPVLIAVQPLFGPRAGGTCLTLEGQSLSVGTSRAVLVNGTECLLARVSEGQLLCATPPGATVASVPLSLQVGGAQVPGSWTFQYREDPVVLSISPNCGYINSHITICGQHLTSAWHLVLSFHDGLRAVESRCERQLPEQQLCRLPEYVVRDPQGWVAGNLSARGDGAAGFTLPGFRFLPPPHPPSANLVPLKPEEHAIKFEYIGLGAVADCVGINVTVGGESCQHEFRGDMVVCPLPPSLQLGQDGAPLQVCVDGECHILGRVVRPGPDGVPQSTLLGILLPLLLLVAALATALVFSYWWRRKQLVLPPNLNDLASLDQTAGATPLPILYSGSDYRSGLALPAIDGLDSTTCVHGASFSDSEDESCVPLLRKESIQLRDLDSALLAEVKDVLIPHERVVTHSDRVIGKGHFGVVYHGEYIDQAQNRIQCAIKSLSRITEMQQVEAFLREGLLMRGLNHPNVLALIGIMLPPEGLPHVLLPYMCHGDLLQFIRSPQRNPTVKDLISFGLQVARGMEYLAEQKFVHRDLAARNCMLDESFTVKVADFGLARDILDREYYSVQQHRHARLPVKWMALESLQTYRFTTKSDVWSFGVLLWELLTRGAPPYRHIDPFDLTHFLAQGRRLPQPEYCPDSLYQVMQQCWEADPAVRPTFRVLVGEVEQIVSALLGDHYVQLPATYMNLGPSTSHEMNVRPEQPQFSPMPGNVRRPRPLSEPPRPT
Experimental: as §1

[8] = target: ULK1 (Homo sapiens, UniProt O75385); test: biochemical; design: KINOMEscan competition binding, DNA-tagged kinase against immobilised ligand, qPCR read-out; settings: read-out: Percent Control
Chain of ULK1 (O75385 whole entry): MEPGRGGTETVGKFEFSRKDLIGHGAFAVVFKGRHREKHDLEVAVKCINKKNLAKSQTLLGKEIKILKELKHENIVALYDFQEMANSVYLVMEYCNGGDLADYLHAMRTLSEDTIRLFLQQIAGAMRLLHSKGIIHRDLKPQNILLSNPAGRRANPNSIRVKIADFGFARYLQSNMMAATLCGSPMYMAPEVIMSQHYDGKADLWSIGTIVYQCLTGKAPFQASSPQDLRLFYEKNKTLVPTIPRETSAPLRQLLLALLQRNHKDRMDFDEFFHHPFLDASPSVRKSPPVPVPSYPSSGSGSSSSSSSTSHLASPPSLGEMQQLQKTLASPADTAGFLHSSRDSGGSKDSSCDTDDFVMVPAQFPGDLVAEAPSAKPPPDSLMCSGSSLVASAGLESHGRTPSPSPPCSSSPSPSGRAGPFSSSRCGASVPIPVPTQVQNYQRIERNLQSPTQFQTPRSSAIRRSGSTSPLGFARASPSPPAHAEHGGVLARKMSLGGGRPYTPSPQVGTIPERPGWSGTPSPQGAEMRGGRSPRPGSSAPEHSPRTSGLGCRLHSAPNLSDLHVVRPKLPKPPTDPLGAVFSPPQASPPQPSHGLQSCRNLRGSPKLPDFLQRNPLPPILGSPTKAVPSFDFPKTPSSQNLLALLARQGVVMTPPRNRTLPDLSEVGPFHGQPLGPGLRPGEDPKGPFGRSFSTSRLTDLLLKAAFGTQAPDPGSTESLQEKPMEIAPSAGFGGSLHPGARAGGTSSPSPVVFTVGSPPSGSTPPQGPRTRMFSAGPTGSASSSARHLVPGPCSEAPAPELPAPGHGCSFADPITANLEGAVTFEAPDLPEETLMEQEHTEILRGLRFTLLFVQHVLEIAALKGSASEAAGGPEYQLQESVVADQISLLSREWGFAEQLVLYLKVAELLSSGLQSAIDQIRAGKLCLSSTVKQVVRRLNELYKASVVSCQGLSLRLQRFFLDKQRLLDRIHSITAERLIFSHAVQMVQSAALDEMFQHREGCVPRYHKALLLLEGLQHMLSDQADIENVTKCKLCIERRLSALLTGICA
Experimental: as §1

[9] = target: TSSK1B (Homo sapiens, UniProt Q9BXA7); test: biochemical; design: KINOMEscan competition binding, DNA-tagged kinase against immobilised ligand, qPCR read-out; settings: read-out: Percent Control
Chain of TSSK1B (Q9BXA7 whole entry): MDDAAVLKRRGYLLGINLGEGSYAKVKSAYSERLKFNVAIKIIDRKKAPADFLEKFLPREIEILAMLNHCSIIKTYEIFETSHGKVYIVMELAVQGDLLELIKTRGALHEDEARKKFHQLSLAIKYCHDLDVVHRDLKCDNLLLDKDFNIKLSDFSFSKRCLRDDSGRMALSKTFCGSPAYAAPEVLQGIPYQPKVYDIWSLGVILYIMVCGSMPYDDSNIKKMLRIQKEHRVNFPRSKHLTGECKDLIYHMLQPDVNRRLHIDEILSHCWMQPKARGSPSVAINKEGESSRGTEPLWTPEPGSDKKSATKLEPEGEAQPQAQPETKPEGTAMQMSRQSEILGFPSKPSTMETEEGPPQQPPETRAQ
Experimental: as §1

[10] = target: TXK (Homo sapiens, UniProt P42681); test: biochemical; design: KINOMEscan competition binding, DNA-tagged kinase against immobilised ligand, qPCR read-out; settings: read-out: Percent Control
Experimental: as §1

[11] = target: BMP2K (Homo sapiens, UniProt Q9NSY1); test: biochemical; design: KINOMEscan competition binding, DNA-tagged kinase against immobilised ligand, qPCR read-out; settings: read-out: Percent Control
Chain of BMP2K (Q9NSY1 whole entry): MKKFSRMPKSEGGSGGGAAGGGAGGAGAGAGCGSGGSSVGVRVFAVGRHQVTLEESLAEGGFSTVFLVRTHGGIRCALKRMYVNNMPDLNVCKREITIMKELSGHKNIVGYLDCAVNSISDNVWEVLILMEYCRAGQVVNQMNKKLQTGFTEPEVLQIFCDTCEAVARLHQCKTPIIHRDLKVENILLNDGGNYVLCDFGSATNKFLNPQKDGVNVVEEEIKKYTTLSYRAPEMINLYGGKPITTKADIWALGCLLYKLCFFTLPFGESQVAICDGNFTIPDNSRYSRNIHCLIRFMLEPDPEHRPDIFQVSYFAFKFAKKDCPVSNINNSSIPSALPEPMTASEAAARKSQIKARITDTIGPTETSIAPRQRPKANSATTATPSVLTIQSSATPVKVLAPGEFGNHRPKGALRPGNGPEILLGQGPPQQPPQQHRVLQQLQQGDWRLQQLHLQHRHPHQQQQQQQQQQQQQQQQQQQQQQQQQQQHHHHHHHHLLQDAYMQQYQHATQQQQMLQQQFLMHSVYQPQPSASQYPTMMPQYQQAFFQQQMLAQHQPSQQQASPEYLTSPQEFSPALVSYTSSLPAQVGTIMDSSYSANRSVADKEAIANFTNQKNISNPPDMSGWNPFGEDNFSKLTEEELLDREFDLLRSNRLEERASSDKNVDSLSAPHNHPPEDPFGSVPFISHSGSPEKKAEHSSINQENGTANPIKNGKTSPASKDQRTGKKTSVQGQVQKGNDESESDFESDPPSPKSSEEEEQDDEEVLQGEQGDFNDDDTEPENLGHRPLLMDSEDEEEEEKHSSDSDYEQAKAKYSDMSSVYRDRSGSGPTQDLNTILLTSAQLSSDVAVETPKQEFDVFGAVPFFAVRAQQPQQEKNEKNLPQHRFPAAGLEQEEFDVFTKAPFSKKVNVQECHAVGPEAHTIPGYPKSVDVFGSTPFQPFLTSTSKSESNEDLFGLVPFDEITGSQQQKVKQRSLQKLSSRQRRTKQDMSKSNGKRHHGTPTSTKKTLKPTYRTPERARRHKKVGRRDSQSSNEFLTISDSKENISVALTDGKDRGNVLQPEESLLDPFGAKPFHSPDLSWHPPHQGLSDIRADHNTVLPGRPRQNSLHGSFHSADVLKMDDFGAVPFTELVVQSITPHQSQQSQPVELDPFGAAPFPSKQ
Experimental: as §1

[12] = target: T3, PFPK5(P.falciparum) (Plasmodium falciparum, UniProt P61075); test: biochemical; design: KINOMEscan competition binding, DNA-tagged kinase against immobilised ligand, qPCR read-out; settings: read-out: Percent Control
T3 construct: gene CRK2
T3 sequence (P61075 whole entry): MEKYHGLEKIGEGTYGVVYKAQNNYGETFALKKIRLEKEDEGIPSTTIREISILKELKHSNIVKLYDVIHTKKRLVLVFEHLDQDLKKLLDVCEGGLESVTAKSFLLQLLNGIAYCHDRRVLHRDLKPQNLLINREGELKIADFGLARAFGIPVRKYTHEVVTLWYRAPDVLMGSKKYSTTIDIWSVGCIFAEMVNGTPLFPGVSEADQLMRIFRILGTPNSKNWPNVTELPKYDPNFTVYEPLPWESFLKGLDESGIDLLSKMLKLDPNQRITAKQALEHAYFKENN

[13] = target: T4, TBK1 (TANK-binding kinase 1) (Homo sapiens, UniProt Q9UHD2); test: surface plasmon resonance (Biacore T200, steady-state affinity)
T4 construct: full-length human TBK1, expressed in Sf9, His tag removed by TEV

[14] = target: T2, DRAK1; test: biochemical; design: KINOMEscan competition binding, DNA-tagged kinase against immobilised ligand, qPCR read-out; settings: read-out: Percent Control
[15] = target: T1, PIM2; test: biochemical; design: KINOMEscan competition binding, DNA-tagged kinase against immobilised ligand, qPCR read-out; settings: read-out: Percent Control
[16] = target: PKNB(M.tuberculosis) (Mycobacterium tuberculosis, UniProt P9WI81); test: biochemical; design: KINOMEscan competition binding, DNA-tagged kinase against immobilised ligand, qPCR read-out; settings: read-out: Percent Control
[17] = target: DYRK1B (Homo sapiens, UniProt Q9Y463); test: biochemical; settings: read-out: Percent Control
[18] = target: LTK (Homo sapiens, UniProt P29376); test: biochemical; settings: read-out: Percent Control

T1 sequence (Q9P1W9 whole entry): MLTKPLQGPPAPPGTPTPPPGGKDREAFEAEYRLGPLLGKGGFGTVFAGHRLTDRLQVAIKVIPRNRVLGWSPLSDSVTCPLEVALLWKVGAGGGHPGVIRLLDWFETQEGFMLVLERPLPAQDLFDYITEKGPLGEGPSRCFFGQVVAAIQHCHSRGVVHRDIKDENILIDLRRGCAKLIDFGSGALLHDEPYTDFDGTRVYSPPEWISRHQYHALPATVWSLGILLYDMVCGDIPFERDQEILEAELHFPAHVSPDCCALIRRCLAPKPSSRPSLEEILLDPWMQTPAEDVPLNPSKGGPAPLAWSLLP

Oc1ccc(C2=Cc3ccc(O)cc3OC2)cc1 [compound 1, idronoxil]
KINOMEscan competition binding (403 kinases, 10 μM IDX) [1]: broadly a poor kinase inhibitor, only binding its top two targets (PIM2 and DRAK1) in the micromolar range
Kd [2]: 1200 nM
Kd [3]: 2300 nM
KINOMEscan competition binding (403 kinases, 10 μM IDX) [4]: broadly a poor kinase inhibitor, only binding its top two targets (PIM2 and DRAK1) in the micromolar range
remaining binding at 10 µM [5]: 100%
remaining binding at 10 µM [6]: 69%
remaining binding at 10 µM [7]: 100%
remaining binding at 10 µM [8]: 89%
remaining binding at 10 µM [9]: 87%
remaining binding at 10 µM [10]: 87%
remaining binding at 10 µM [11]: 86%
remaining binding at 10 µM [12]: 95%
Kd [13]: 39200 nM
remaining binding at 10 µM [14]: 4.3%
remaining binding at 10 µM [15]: 2.6%
remaining binding at 10 µM [16]: 76%
remaining activity at 10 µM [17]: 27%
remaining activity at 10 µM [18]: 95%
